Read-outs that look alike come from different tables or passages of the source.
Columns and labels:
[1] = system: Raw 264.7 (ATCC TIB71) cells; assay: Evaluation of cell survival rate of macrophages (MTT); assay type: cell-based, mouse; conditions: Raw 264.7, 10 μM, 24 hours
Method: Raw 264.7 (ATCC TIB71) cells, the mouse derived macrophages', were inoculated in a 96-well plate containing DMEM (Dulbecco's modified Eagle medium; Welgene, Korea) supplemented with 10% FBS (Fetal Bovine Serum), 2 mM glutamine, penicillin (100 unit/ml), and streptomycin (100 μg/ml) at the density of 1×10^4 cells/well. The cells were cultured in 5% CO2 at 37° C. for 4 hours to attach the cells onto the plate. Next, the cells were treated with each sample at different concentrations, followed by further culture for 24 hours. To investigate the cell survival rate, 5 mg/ml of MTT (3-(4,5-dimethylthiazol-2-yl)-2,5-diphenyltetrazoliumbromide, Amresco, OH, USA) was distributed thereto (10 μl/well), followed by culture for 4 hours. Then, the supernatant was eliminated. Formazan reduced from MTT by mitochondria was dissolved in 100 μl of DMSO and then OD570 was measured. 0.2% DMSO was used for the negative control.

[2] = system: Nitrogen Oxide (NO) generation; assay: Inhibition of nitrogen oxide (NO) generation in LPS-treated Raw 264.7 cells (Griess); assay type: cell-based, mouse; conditions: Raw 264.7, LPS 500 ng/ml, 24 hours
Method: Raw 264.7 (ATCC TIB71) cells were inoculated in a 96-well plate containing the same medium as used in Experimental Example 1 at the density of 1×10^5 cells/well. The cells were cultured in 5% CO2 at 37° C. for 4 hours to attach the cells onto the plate. The cells were treated with each sample at different concentrations, followed by further culture for 1 hour. […] were treated thereto at the final concentration of 500 ng/ml, followed by further culture for 24 hours. 100 μl of the supernatant was taken and transferred in a new plate, which was mixed with Griess reagent (a mixture of 1% sulfanilamide, 0.1% N-[1-naphthyl]-ethylenediamine dihydrochloride, and 5% phosphoric acid), followed by reaction for 10 minutes. Then, OD540 was measured. NO generation was quantified by using the sodium nitrite standard curve prepared from […] dissolved in the same medium at different concentrations. Considering the NO generation of the inflammation induced macrophages as 100%, the NO generation inhibition rate was calculated and presented in Table 7.

[3] = system: interleukin-6 (IL-6) generation; assay: Inhibition of interleukin-6 (IL-6) generation in LPS-treated Raw 264.7 cells (ELISA); assay type: cell-based, mouse; conditions: Raw 264.7, LPS treated, read-out: Grades of IC50 on IL-6 generation
Method: Raw 264.7 cells were distributed by the same manner as described in Experimental Example <2-1>, and IL-6 included in the supernatant treated with each sample at different concentrations was measured by enzyme-linked immunosorbent assay (IL-6 ELISA kit, BD Bioscience, San Diego, Calif.).
(§1) Particularly, 10-fold diluted supernatant was distributed in a 96-well plate on which IL-6 antibody was attached, followed by adhesion for 2 hours. The supernatant remaining after the adhesion was washed with a washing buffer. The detection antibody and HRP were adhered on the washed plate for 1 hour. The remaining antibody was washed. Color development was induced by using TMB substrate. The reaction was terminated with sulfuric acid solution. Then, OD450 was measured. IL-6 in the supernatant was quantified by using the standard curve made with the standard IL-6 included in the kit. IL-6 suppression rate was calculated by measuring the same concentration that could inhibit IL-6 generation up to 50% in the LPS treated group and the results are shown in Table 8.

[4] = system: Tumor Necrosis Factor Alpha (TNF-alpha); assay: Inhibition of TNF-alpha generation in LPS-treated Raw 264.7 cells (ELISA); assay type: cell-based; conditions: Mus musculus, RAW264.7; Raw 264.7, LPS treated; read-out: Grades of IC50 on TNF-alpha generation
Method: Raw 264.7 cells were distributed by the same manner as described in Experimental Example <2-1>, which were treated with the samples selected due to their high NO and IL-6 suppressing effect at different concentrations. TNF-alpha included in the supernatant was measured by enzyme-linked immunosorbent assay (TNF-alpha ELISA kit, R&D Systems, MN, USA).
as §1, with “100-fold” for “10-fold”, “TNF-alpha” for “IL-6”, “9.” for “8.”

[5] = Rheumatoid arthritis (collagen-induced) model: weight changes; assay type: in vivo, mouse; conditions: DBA/1 CIA mice, 30 mg/kg oral, FIG. 10
Method: Bovine type II collagen (100 μg/mouse, Hondrax, Seattle, USA) and complete Freund's adjuvant (Chondrex, Seattle, USA) were intradermally injected in the tail of 7˜9 DBA/1 male mouse. On day 21, 100 μg of bovine type II collagen was mixed with incomplete Freund's adjuvant (IFA), which was injected in the tail of each mouse once again to induce arthritis.

Row | IC50 ([3]; Mus musculus, RAW264.7) [µM] | weight change [5] | SMILES | Grades of cell survival rate (%, in 10 μM) [1] | Grades of NO generation inhibition rate (%) [2] | IC50 [4] [µM] | IC50 [3] [µM]
1 | 20 to 30 | – | COc1ccc(-c2cc3cc(CCCOC(C)=O)cc(OC)c3o2)cc1OC [Example 28, 3-(2-(3,4-dimethoxyphenyl)-7-methoxybenzofuran-5-yl)propyl acetate] | A (A: 90<A≤100) | B (B: 25<B≤35) | 1 to 3 | –
2 | – | – | COc1cc(CCCO)cc(CCc2ccc(C)cc2)c1O [Example 16, 4-(3-hydroxypropyl)-2-methoxy-6-(4-methylpenethyl)phenol] | A (A: 90<A≤100) | C (C: 15<C≤25) | – | 30 to 40
3 | ≤ 10 | – | COc1cc(-c2cc3cc(CCCO)cc(OC)c3o2)ccc1O [Example 22, 4-(5-(3-hydroxypropyl)-7-methoxybenzofuran-2-yl)-2-methoxyphenol] | A (A: 90<A≤100) | A (A: 35<A≤100) | 3 to 5 | –
4 | 40 to 50 | – | COc1cc(CCCO)cc2cc(-c3cccc(C)c3)oc12 [Example 3, 3-(7-methoxy-2-m-tolylbenzofuran-5-yl)propane-1-ol] | A (A: 90<A≤100) | A (A: 35<A≤100) | – | –
5 | 40 to 50 | – | COc1ccc(-c2cc3cc(CCCO)cc(OC)c3o2)cc1 [Example 7, 3-(7-methoxy-2-(4-methoxyphenyl)benzofuran-5-yl)propane-1-ol] | A (A: 90<A≤100) | D (D: 5<D≤15) | – | –
6 | – | – | COc1ccc(CCc2cc(CCCO)cc(OC)c2O)cc1OC [Example 14, 2-(3,4-dimethoxyphenethyl)-4-(3-hydroxypropyl)-6-methoxyphenol] | C (C: 70<C≤80) | C (C: 15<C≤25) | – | –
7 | 20 to 30 | – | COc1ccc(-c2cc3cc(CCCO)cc(O)c3o2)cc1OC [Example 27, 2-(3,4-dimethoxyphenyl)-5-(3-hydroxypropyl)benzofuran-7-ol] | B (B: 80<B≤90) | D (D: 5<D≤15) | – | –
8 | – | – | COc1cccc(CCc2cc(CCCO)cc(OC)c2O)c1 [Example 17, 4-(3-hydroxypropyl)-2-methoxy-6-(3-methoxypenethyl)phenol] | B (B: 80<B≤90) | C (C: 15<C≤25) | – | 40 to 50
9 | 10 to 20 | – | COc1cc(CCCO)cc2cc(-c3cc(F)cc(F)c3)oc12 [Example 6, 3-[2-(3,5-difluorophenyl)-7-methoxybenzofuran-5-yl]propane-1-ol] | A (A: 90<A≤100) | B (B: 25<B≤35) | 15 to 17 | –
10 | 20 to 30 | – | COc1ccc(-c2cc3cc(CCO)cc(OC)c3o2)cc1OC [Example 20, 2-[2-(3,4-dimethoxyphenyl)-7-methoxybenzofuran-5-yl]ethanol] | B (B: 80<B≤90) | A (A: 35<A≤100) | – | –
11 | ≤ 10 | – | COc1cc(-c2cc3cc(CCCO)cc(OC)c3o2)cc(OC)c1O [Example 26, 4-(5-(3-hydroxypropyl)-7-methoxybenzofuran-2-yl)-2,6-dimethoxyphenol] | A (A: 90<A≤100) | A (A: 35<A≤100) | 1 to 3 | –
12 | 40 to 50 | – | COc1cc(CCCO)cc2cc(-c3cccc(F)c3)oc12 [Example 8, 3-(2-(3-fluorophenyl)-7-methoxybenzofuran-5-yl)propane-1-ol] | A (A: 90<A≤100) | C (C: 15<C≤25) | – | –
13 | 40 to 50 | – | COc1ccc(-c2cc3cc(CCCO)cc(OC)c3o2)cc1O [Example 23, 5-(5-(3-hydroxypropyl)-7-methoxybenzofuran-2-yl)-2-methoxyphenol] | B (B: 80<B≤90) | C (C: 15<C≤25) | – | –
14 | 40 to 50 | – | COc1cccc(-c2cc3cc(CCCO)cc(OC)c3o2)c1 [Example 5, 3-(7-methoxy-2-(3-methoxyphenyl)benzofuran-5-yl)propane-1-ol] | A (A: 90<A≤100) | C (C: 15<C≤25) | – | –
15 | ≤ 10 | – | COc1ccc(-c2cc3cc(CCCO)cc(OC)c3o2)c(C)c1 [Example 2, 3-(7-methoxy-2-(4-methoxy-2-methylphenyl)benzofuran-5-yl)propane-1-ol] | A (A: 90<A≤100) | A (A: 35<A≤100) | 3 to 5 | –
16 | 40 to 50 | – | COc1cc(CCCO)cc2cc(-c3ccc(N(C)C)cc3)oc12 [Example 9, 3-(2-(4-(dimethylamino)phenyl)-7-methoxybenzofuran-5-yl)propane-1-ol] | A (A: 90<A≤100) | C (C: 15<C≤25) | – | –
17 | 10 to 20 | – | COc1ccc(-c2cc3cc(CCCO)cc(OC)c3o2)cc1OC [Example 1, 3-[2-(3,4-dimethoxyphenyl)-7-methoxybenzofuran-5-yl]propane-1-ol] | A (A: 90<A≤100) | D (D: 5<D≤15) | 5 to 10 | –
18 | ≤ 10 | no weight change observed | COc1cc(CCCO)cc2cc(-c3ccc(O)c(O)c3)oc12 [Example 25, 4-(5-(3-hydroxypropyl)-7-methoxybenzofuran-2-yl)benzene-1,2-diol] | A (A: 90<A≤100) | A (A: 35<A≤100) | 1 to 3 | –
19 | 10 to 20 | – | COc1cc(CCCO)cc2cc(-c3cc(O)cc(O)c3)oc12 [Example 24, 5-(5-(3-hydroxypropyl)-7-methoxybenzofuran-2-yl)benzene-1,3-diol] | A (A: 90<A≤100) | A (A: 35<A≤100) | 5 to 10 | –
20 | 40 to 50 | – | COc1ccc(-c2cc3cc(CO)cc(OC)c3o2)cc1OC [Example 18, [2-(3,4-dimethoxyphenyl)-7-methoxybenzofuran-5-yl]methanol] | A (A: 90<A≤100) | C (C: 15<C≤25) | – | –

Source: US10053443B2, “2-phenylbenzofuran derivatives, method for preparing the same and use of the same for treating inflammatory disease” (KOREA RESEARCH INSTITUTE OF BIOSCIENCE AND BIOTECHNOLOGY, priority 2014, dated 2018)
